Reference: ChEMBL document CHEMBL5576106, “Highly Functionalized Spirobisnaphthalenes from Roussoella sp. KT4147” (J Nat Prod, 2024)

Tested on: COLO 201
Assay: Cytotoxicity against human COLO201 cells assessed as inhibition of cell growth incubated for 24 hrs by WST-1 assay
Format: functional, cell-based
Settings: COLO 201, 24 h

Compound | IC50
COc1cc(=O)oc2c1[C@H](CO)[C@@H]1[C@H](C2)C(=O)c2cccc3c2[C@@]12Oc1ccc(O)c4c1[C@](O3)(O2)[C@@H]1O[C@@H]1C4=O | 5.4 µM
O=C1C=CC(=O)C2=C1[C@@H](O)[C@H]1O[C@H]1C21Oc2cccc3cccc(c23)O1 | 9.4 µM
O=C1C[C@@H](N[C@@H]2CC(=O)c3cccc4c3[C@@]23Oc2ccc(O)c5c2[C@](O4)(O3)[C@@H]2O[C@@H]2C5=O)[C@]23Oc4ccc(O)c5c4[C@](Oc4cccc1c42)(O3)[C@@H]1O[C@@H]1C5=O | 5.7 µM
CC[C@@]1(O)C(=O)OCc2c1cc1n(c2=O)Cc2cc3ccccc3nc2-1 [CAMPTOTHECIN] | 27 µM
Oc1ccc(O)c2c1[C@@H](O)C[C@@H](O)C21Oc2cccc3cccc(c23)O1 | 9.8 µM
